From patent US12195428B2, “Charged ion channel blockers and methods for use” (Nocion Therapeutics, Inc., priority 2019, dated 2025)

Tests used:
NaV1.7 [1] = molecular target: T1, NaV1.7 (Homo sapiens, UniProt Q15858); experiment: Nav1.7 intracellular inhibition (internal block), whole cell patch clamp; type: cell-based; conditions: % inhibition at 1 μM test concentration, compound in internal solution, 5 Hz stimulation
T1 construct: expressed in transfected cells; host or cells: unnamed tetracycline-inducible cell line, kept under hygromycin and blasticidin selection
T1 sequence (Q15858 whole entry): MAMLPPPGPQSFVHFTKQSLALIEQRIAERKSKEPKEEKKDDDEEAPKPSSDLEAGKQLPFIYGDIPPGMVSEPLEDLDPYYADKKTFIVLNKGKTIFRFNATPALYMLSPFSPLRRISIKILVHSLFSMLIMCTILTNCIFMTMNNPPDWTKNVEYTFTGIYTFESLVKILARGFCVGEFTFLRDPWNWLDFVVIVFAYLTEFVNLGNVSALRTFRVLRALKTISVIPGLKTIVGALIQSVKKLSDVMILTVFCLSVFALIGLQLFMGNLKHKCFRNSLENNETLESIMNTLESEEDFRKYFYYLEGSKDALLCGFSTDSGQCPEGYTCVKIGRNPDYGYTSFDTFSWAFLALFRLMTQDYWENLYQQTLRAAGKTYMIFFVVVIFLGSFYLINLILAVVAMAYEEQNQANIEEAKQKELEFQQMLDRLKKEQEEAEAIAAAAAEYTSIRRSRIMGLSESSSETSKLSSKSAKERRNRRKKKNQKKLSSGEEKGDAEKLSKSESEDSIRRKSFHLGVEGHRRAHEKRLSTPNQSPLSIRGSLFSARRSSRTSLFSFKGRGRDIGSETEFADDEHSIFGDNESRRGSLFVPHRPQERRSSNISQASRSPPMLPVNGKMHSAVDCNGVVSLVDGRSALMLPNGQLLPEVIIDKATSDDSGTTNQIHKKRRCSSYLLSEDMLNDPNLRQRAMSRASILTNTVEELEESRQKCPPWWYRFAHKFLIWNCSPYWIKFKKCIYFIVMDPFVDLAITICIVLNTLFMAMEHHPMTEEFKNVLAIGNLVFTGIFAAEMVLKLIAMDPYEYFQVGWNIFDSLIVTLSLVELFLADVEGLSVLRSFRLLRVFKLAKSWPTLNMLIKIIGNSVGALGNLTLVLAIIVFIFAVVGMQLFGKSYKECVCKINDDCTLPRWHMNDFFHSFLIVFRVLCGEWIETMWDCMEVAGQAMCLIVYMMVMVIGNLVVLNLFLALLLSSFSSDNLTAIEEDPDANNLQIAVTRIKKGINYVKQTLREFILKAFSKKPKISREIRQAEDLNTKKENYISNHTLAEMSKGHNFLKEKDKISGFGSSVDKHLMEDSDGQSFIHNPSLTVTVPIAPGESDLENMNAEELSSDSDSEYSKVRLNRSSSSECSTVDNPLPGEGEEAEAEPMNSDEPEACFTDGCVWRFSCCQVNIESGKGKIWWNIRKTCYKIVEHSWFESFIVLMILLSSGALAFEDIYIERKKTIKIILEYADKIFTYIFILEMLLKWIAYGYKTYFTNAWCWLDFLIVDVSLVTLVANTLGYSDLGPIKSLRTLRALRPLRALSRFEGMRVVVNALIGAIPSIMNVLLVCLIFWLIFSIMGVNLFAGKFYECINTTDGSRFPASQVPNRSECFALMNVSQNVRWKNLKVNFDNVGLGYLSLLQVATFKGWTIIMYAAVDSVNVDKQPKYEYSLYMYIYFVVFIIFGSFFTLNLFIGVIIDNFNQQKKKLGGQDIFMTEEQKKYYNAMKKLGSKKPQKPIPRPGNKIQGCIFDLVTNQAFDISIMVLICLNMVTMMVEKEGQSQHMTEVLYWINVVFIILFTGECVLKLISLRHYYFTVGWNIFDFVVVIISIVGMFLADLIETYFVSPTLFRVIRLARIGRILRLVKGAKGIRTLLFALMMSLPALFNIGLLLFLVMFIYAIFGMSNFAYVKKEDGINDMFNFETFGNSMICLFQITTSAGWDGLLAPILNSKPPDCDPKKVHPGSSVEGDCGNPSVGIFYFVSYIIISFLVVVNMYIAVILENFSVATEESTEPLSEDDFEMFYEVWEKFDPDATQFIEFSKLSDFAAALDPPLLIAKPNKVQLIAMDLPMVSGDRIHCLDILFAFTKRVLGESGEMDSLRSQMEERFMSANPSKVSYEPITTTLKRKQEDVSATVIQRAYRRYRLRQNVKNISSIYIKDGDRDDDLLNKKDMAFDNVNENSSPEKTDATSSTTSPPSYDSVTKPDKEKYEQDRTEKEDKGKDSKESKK
Protocol: (§1) Representative compounds of the invention were synthesized according to the described methods and tested for the ability to inhibit voltage-gated sodium channels.
(§2) NaV1.7 was expressed upon induction with tetracycline. Cells were cultured in DMEM containing 10% dialyzed Fetal Bovine Serum (VWR, Radnor, PA), 1% Glutamax (VWR, Radnor, PA), 1% Penicillin-Streptomycin (VWR, Radnor, PA), 100 mg/L Hygromycin (Thermo Fisher Scientific, Waltham, MA and 5 mg/L Blasticidin (Alfa Aesar, Haverhill, MA). Cells were grown and maintained at 37° C. in a humidified environment containing 10% CO2 in air. Cells were detached from the culture flask for passage and harvested using 0.05% Trypsin-EDTA (Thermo Fisher Scientific, Waltham, MA). To induce NaV1.7, cells were induced with tetracycline ([…], IBI Scientific, Peosta, IA) the day before recording and plated onto 24-well plates. Cells were washed with DPBS (VWR, Radnor, PA), trypsinized and then triturated five times in 10 mL of growth media to break apart cell aggregates. For one 24-well plate, 2 mL of cell suspension was mixed with 23 mL of fresh growth media and […] tetracycline added. 1 ml of mixed media with cells was then added to each well of a 24-well plate, with a 12 mm coverslip already placed in the bottom of the well. Cells were then incubated in 37° C. and 10% CO2 overnight.
(§3) The intracellular solution contained the following (in mM) CsCl 135, NaCl 10, EGTA 10, HEPES 10, MgCl2 2, adjusted to pH 7.2 with CsOH. The external solution was a normal Ringer solution containing (in mM) NaCl 155, HEPES 10, glucose 10, KCl 3.5, CaCl2) 1.5, MgCl2 1 adjusted to pH 7.4 with NaOH. CsCl is from Alfa Aesar, Haverhill, MA. All other chemicals are from Sigma-Aldrich, St. Louis, MO. In order to test the degree of internal block by test compounds the compounds were dissolved in internal solution at the indicated test concentration. […] In order to test the degree of external block by test compounds the compounds were dissolved in external solution at the indicated test concentration.
(§4) 18-24 hours after cells were induced with tetracycline, coverslips were placed into a chamber filled with Normal Ringer solution at room temperature and the chamber placed on a microscope. Pipettes were pulled from borosilicate glass on a P97 puller (Sutter Instrument, Novato, CA) and polished with a MF-830 Microforge (Narishige International USA, Inc, Amityville, NY) to have a resistance of 1.5-2.5 MΩ when filled with CsCl internal solution at room temperature. Healthy cells (those that are round and translucent with no visible blemishes) were chosen for seal formation. A seal was formed between the pipette and the cell, and a brief pulse of suction was used to “break in” and establish the whole-cell configuration. The membrane potential was held at −100 mV before the voltage protocol began. Only cells with series resistance between 1.5-5 MΩ were retained for analysis. The voltage protocol was as follows: Cells were held at −100 mV for 12 ms followed by a hyperpolarizing step to −105 mV for 12 ms to monitor the leak. Cells were then stepped back to −100 mV for 40 ms. Cells were then depolarized to −20 mV for 10 ms and then returned to −100 mV for 26 ms.
Once the recording was started, the voltage protocol was run at 30 second intervals for 5 minutes to get a stable baseline. This was followed by four 30-second periods of 5 Hz stimulation of the same voltage protocol separated by 1 minute of rest which was then followed by 0.33 Hz stimulation after the last train. Currents were recorded using PatchMaster software with Heka EPC10 (HEKA Electronics, Lambrecht, Germany). Only cells with inward current amplitudes at −20 mV between 400 pA and 4 nA were accepted. In addition, cells having leak currents greater than 10% of their current amplitudes were discarded. […]

[2] = PAMPA membrane permeability assay; type: in vitro ADME; conditions: pH 7.4 buffer, GIT lipid, 4 hours incubation
Protocol: The PAMPA assay (pION, Inc., Woburn MA) was used to determine the ability of compounds of the invention to cross an artificial lipid membrane by passive diffusion. Test compounds were dissolved in DMSO (10 mM) and diluted 200-fold in buffer (pION Inc., pH 7.4) to provide 50 uM stock solutions. Buffer (150 μL) was added to a UV blank plate and stock solutions (150 μL) were transferred to a UV reference plate. The blank and reference spectrum were read using a spectrophotometer. Stock solutions (200 μL) were added to the donor plate of the PAMPA sandwich plate and an accept plate painted with GIT lipid (pION Inc, 5 μL) was placed on top. Buffer (200 μL) was added to the acceptor plate and the PAMPA sandwich plate was incubated for 4 hours. Aliquots (150 μL) from the acceptor plate were added to a UV plate and read as acceptor spectrum. Aliquots (150 μL) of the donor solutions were added to a UV analysis plate and read as donor spectrum. The permeability coefficient of test compounds was calculated using PAMPA Explorer™ software (version 3.5.0.4) based on the AUC of the reference plate, the donor plate, and the acceptor plate.

NaV1.7 [3] = molecular target: T1, NaV1.7; experiment: Nav1.7 extracellular inhibition (external block), whole cell patch clamp; type: cell-based; conditions: compound in external solution for 5 minutes, 5 Hz stimulation; for inhibition at 10 µM: % inhibition at 10 μM test concentration; for inhibition at 30 µM: % inhibition at 30 μM test concentration
Protocol: as §1, §2, §3, §4
Once the recording was started, the voltage protocol was run at 30 second intervals for 5 minutes to get a stable baseline. […] Currents were recorded using PatchMaster software with Heka EPC10 (HEKA Electronics, Lambrecht, Germany). […]

| SMILES | inhibition at 1 µM (NaV1.7 [1]) [%] | PAMPA (10^−6 cm/s) [2] | inhibition at 10 µM (NaV1.7 [3]) [%] | inhibition at 30 µM (NaV1.7 [3]) [%] |
| --- | --- | --- | --- | --- |
| CC[N+]1(CC(=O)Nc2c(C)cccc2C)CCCC(c2ccccc2)C1 (stereo not drawn) [Compound 1A, 1-(2-((2,6-dimethylphenyl)amino)-2-oxoethyl)-1-ethyl-3-phenylpiperidin-1-ium iodide] | > 90 |  |  |  |
| CC[N+]1(CC(=O)Nc2c(C)cccc2C)CCC[C@@H](c2ccccc2)C1.[I-] (stereo partly drawn) [Compound 2A] | > 90 | + (“+” (<0.1 10^−6 cm/s)) | < 30 |  |
| CC[N+]1(CC(=O)Nc2c(C)cccc2C)CCC[C@H](c2ccccc2)C1.[I-] (stereo partly drawn) [Compound 3A] | > 90 | + (“+” (<0.1 10^−6 cm/s)) | 30 to 70 |  |
| Cc1cccc(C)c1NC(=O)C[N+]1(C)CCCC(c2ccccc2)C1.[I-] (stereo not drawn) [Compound 4A] | 70 to 90 | + (“+” (<0.1 10^−6 cm/s)) |  |  |
| CC[N+]1(CC(=O)Nc2c(C)cccc2C)CCCCC1c1ccccc1 (stereo not drawn) [Compound 5A] | 70 to 90 | + (“+” (<0.1 10^−6 cm/s)) |  | 30 to 70 |
| CCC[N+]1(CC(=O)Nc2c(C)cccc2C)CCCC(c2ccccc2)C1 (stereo not drawn) [Compound 6A] | > 90 | + (“+” (<0.1 10^−6 cm/s)) | 30 to 70 |  |
| Cc1cccc(C)c1NC(=O)C[N+]1(C)CCCCC1c1ccccc1.[I-] (stereo not drawn) [Compound 8A] | 30 to 70 | + (“+” (<0.1 10^−6 cm/s)) |  | 30 to 70 |
| COC(=O)C[N+]1(CC(=O)Nc2c(C)cccc2C)CCCCC1c1ccccc1 (stereo not drawn) [Compound 9A] | 30 to 70 | + (“+” (<0.1 10^−6 cm/s)) |  |  |
| CCC[N+]1(CC(=O)Nc2c(C)cccc2C)CCCCC1c1ccccc1 (stereo not drawn) [Compound 10A] | 30 to 70 |  |  |  |
